Assay results as given in patent US20240002326A1, “COMPOUNDS AND USE THEREOF IN METHODS OF TREATMENT” (The University of Queensland, priority 2016, published 2024).

Legend:
[1] = test system: SOX binding site consensus DNA; test: Direct DNA-binding assay (SPR), consensus DNA; conditions: biotinylated double-strand DNA on streptavidin chip
Protocol: (§1) Compounds were tested at a 1% v/v DMSO in HBS-EP buffer (10 mM HEPES, 150 mM NaCl, 3 mM EDTA, 0.005% v/v polysorbate 20, pH 7.4). The same buffer supplemented with 1% v/v DMSO was used as a mobile phase. DNA minor groove binder DAPI (4′,6-diamidino-2-phenylindole), DNA intercalator and minor groove binder actinomycin D, and DNA intercalator ethidium bromide were used as positive controls. Biotinylated (one tag per probe) double strand DNA probes were prepared using a standard annealing routine (5 min at 100° C., room temperature overnight and stored at −20° C.) of single strand anti-parallel DNA Probes purchased from Geneworks and were immobilized on CM5-SA streptavidin chips as per manufacturer's recommendations. […] All sample and control cycles were performed in triplicate. DMSO calibration was performed as per manufacturer's recommendations. After each injection, an extra flow system wash was performed with 50% v/v DMSO to avoid carryover. Experiments were run on a Biacore T200 (GE Healthcare, USA), with one flow cell kept as a reference.
(§2) From a molecular viewpoint, an inhibitor of SOX18-DNA binding could act either by interacting directly with the DNA, or the protein, or at the interface between protein and DNA. Binding of small molecules directly to the DNA, even though reported for other TFs (Leung et al., 2013), has the potential for unspecific DNA binding, leading to possible genotoxicity, mutagenicity, or carcinogenicity. For this reason, we developed a direct binding assays to determine whether the active compounds interact directly with DNA or protein. A surface plasmon resonance-based method was developed to analyse the binding of small molecules to biotinylated double stranded DNA immobilized on the surface of a streptavidin chip. The method measures the rate of binding (kon), dissociation (koff) and binding constant (KD), and was used to measure the binding to two different DNA sequences: SOX binding site consensus DNA, and scrambled DNA. Intercalating agents ethidium bromide and Actinomycin D, and the minor groove-binding agent 4′,6-diamino-2-phenylindole (DAPI) were used as positive controls for unselective DNA binding.

scrambled DNA = test: Direct DNA-binding assay (SPR), scrambled DNA; conditions: biotinylated double-strand DNA on streptavidin chip
Protocol: as §1, §2

- binding to consensus DNA (SPR) [1]: do not bind
- binding to scrambled DNA (SPR) (scrambled DNA): do not bind
Compound: O=C(O)c1c(O)cccc1COCCc1ccccc1 [Sm5]
